Measured values: patent US12023319B2, “Carboxylic acid aromatic amides” (priority 2016, dated 2024)

target: T1, human Bradykinin B1 receptor (Homo sapiens, UniProt P46663); assay: Calcium flux assay (FLIPR), CHO-K1 cells expressing human Bradykinin B1 receptor, absence of 0.1% BSA (hB1 free IC50); assay type: cell-based; conditions: absence of 0.1% BSA in assay buffer
T1 construct: host or cells: CHO-K1
T1 sequence (P46663 1-353): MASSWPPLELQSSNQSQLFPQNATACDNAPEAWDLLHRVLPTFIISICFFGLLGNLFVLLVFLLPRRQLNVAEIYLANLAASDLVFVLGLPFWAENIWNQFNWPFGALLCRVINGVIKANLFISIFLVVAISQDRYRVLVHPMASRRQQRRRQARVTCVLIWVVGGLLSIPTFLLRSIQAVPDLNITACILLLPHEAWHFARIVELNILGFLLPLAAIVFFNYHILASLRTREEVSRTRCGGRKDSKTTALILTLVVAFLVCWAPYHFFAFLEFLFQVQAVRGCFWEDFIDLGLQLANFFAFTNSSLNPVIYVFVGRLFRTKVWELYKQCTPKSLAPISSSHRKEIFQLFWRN
Procedure, shortened: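 Peak FLIPR fluorescence (538 nm) after B1 agonist peptide addition gave IC50s, scaled between DMSO and full block by 20 µM Lys-(Des-Arg-Leu)-Bradykinin. Compounds were preincubated 30 min at 28° C with calcium-dye-loaded CHO-K1 cells expressing human B1, at 8 concentrations in triplicate, 1% DMSO final.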

SMILES	IC50 [nM]
O=C(O)c1cc(NC(=O)C2(c3ccccc3)CC2)cc(F)c1-c1cnn(C2CCC2)c1 [Example 141, 2-(1-Cyclobutyl-1H-pyrazol-4-yl)-3-fluoro-5-{[(1-phenylcyclopropyl)carbonyl]amino}benzoic acid]	2800
O=C(O)c1cc(NC(=O)C2(Cc3ccc(Cl)cc3)CC2)cc(F)c1-c1cnn(C2CCC2)c1 [Example 142, 5-({[1-(4-Chlorobenzyl)cyclopropyl]carbonyl}amino)-2-(1-cyclobutyl-1H-pyrazol-4-yl)-3-fluorobenzoic acid]	3100
Cn1cc(-c2c(F)cc(NC(=O)C3(c4ccc(C(F)(F)F)cc4F)CC3)cc2C(=O)O)cn1 [Example 143, 3-Fluoro-5-[({1-[2-fluoro-4-(trifluoromethyl)phenyl]cyclopropyl}carbonyl)amino]-2-(1-methyl-1H-pyrazol-4-yl)benzoic acid]	78
CC1CCC(C2(C(=O)Nc3cc(F)c(-c4cnn(C5CCC5)c4)c(C(=O)O)c3)CC2)CC1 (stereo not shown) [Example 145, 2-(1-Cyclobutyl-1H-pyrazol-4-yl)-3-fluoro-5-({[1-(4-methylcyclohexyl)cyclopropyl]carbonyl}amino)benzoic acid]	160
CC1(Cn2cc(-c3ccc(NC(=O)C4(c5ccc(C(F)(F)F)cc5F)CC4)cc3C(=O)O)cn2)CC1 [Example 151, 5-[({1-[2-Fluoro-4-(trifluoromethyl)phenyl]cyclopropyl}carbonyl)amino]-2-{1-[(1-methylcyclopropyl)methyl]-1H-pyrazol-4-yl}benzoic acid]	22
CC1(Cn2cc(-c3ccc(NC(=O)C4(c5ccc(OC(F)(F)F)cc5F)CC4)cc3C(=O)O)cn2)CC1 [Example 152, 5-[({1-[2-Fluoro-4-(trifluoromethoxy)phenyl]cyclopropyl}carbonyl)amino]-2-{1-[(1-methylcyclopropyl)methyl]-1H-pyrazol-4-yl}benzoic acid]	8.1
CC(C1CC1)n1cc(-c2ccc(NC(=O)C3(c4ccc(C(F)(F)F)cc4F)CC3)cc2C(=O)O)cn1 (stereo not shown) [Example 153, 2-[1-(1-Cyclopropylethyl)-1H-pyrazol-4-yl]-5-[({1-[2-fluoro-4-(trifluoromethyl)phenyl]cyclopropyl}carbonyl)amino]benzoic acid]	8.7
COCCn1cc(-c2ccc(NC(=O)C3(c4ccc(C(F)(F)F)cc4F)CC3)cc2C(=O)O)cn1 [Example 155, 5-[({1-[2-Fluoro-4-(trifluoromethyl)phenyl]cyclopropyl}carbonyl)amino]-2-[1-(2-methoxyethyl)-1H-pyrazol-4-yl]benzoic acid]	270
CCc1ccc(-c2ccc(NC(=O)C3(c4ccc(C(F)(F)F)cc4F)CC3)cc2C(=O)O)cn1 [Example 160, 2-(6-Ethylpyridin-3-yl)-5-[({1-[2-fluoro-4-(trifluoromethyl)phenyl]cyclopropyl}carbonyl)amino]benzoic acid]	21
CCc1ccc(-c2ccc(NC(=O)C3(c4ccc(OC(F)(F)F)cc4F)CC3)cc2C(=O)O)cn1 [Example 161, 2-(6-Ethylpyridin-3-yl)-5-[({1-[2-fluoro-4-(trifluoromethoxy)phenyl]cyclopropyl}carbonyl)amino]benzoic acid]	15
CCc1ccc(-c2c(F)cc(NC(=O)C3(c4ccc(C(F)(F)F)cc4F)CC3)cc2C(=O)O)cn1 [Example 162, 2-(6-Ethylpyridin-3-yl)-3-fluoro-5-[({1-[2-fluoro-4-(trifluoromethyl)phenyl]cyclopropyl}carbonyl)amino]benzoic acid]	14
Cn1ncc2ccc(-c3ccc(NC(=O)C4(c5ccc(OC(F)(F)F)cc5F)CC4)cc3C(=O)O)cc21 [Example 164, 5-[({1-[2-Fluoro-4-(trifluoromethoxy)phenyl]cyclopropyl}carbonyl)amino]-2-(1-methyl-1H-indazol-6-yl)benzoic acid]	120
Cn1ncc2ccc(-c3c(F)cc(NC(=O)C4(c5ccc(C(F)(F)F)cc5F)CC4)cc3C(=O)O)cc21 [Example 165, 3-Fluoro-5-[({1-[2-fluoro-4-(trifluoromethyl)phenyl]cyclopropyl}carbonyl)amino]-2-(1-methyl-1H-indazol-6-yl)benzoic acid]	63
Cn1ncc2ccc(-c3c(F)cc(NC(=O)C4(c5ccc(OC(F)(F)F)cc5F)CC4)cc3C(=O)O)cc21 [Example 166, 3-Fluoro-5-[({1-[2-fluoro-4-(trifluoromethoxy)phenyl]cyclopropyl}carbonyl)amino]-2-(1-methyl-1H-indazol-6-yl)benzoic acid]	24
O=C(O)c1cc(NC(=O)C2(c3ccc(OC(F)(F)F)cc3F)CC2)ccc1-c1cn(C2CCC2)cn1 [Example 170, 2-(1-Cyclobutyl-1H-imidazol-4-yl)-5-[({1-[2-fluoro-4-(trifluoromethoxy)phenyl]cyclopropyl}carbonyl)amino]benzoic acid]	2100
O=C(O)c1cc(NC(=O)C2(c3ccc(C(F)(F)F)cc3F)CC2)cc(F)c1-c1cnn(CC(F)(F)F)c1 [Example 172, 3-Fluoro-5-[({1-[2-fluoro-4-(trifluoromethyl)phenyl]cyclopropyl}carbonyl)amino]-2-[1-(2,2,2-trifluoroethyl)-1H-pyrazol-4-yl]benzoic acid]	30

Now from value to compound:

IC50 [nM]	SMILES
3.7	O=C(O)c1cc(NC(=O)C2(c3ccc(Cl)cc3F)CC2)ccc1-c1cnc(C2CCC2)s1 [Example 146, 5-({[1-(4-Chloro-2-fluorophenyl)cyclopropyl]carbonyl}amino)-2-(2-cyclobutyl-1,3-thiazol-5-yl)benzoic acid]
13	Cc1ccc(C2(C(=O)Nc3ccc(-c4cnc(C5CCC5)s4)c(C(=O)O)c3)CC2)c(F)c1 [Example 147, 2-(2-Cyclobutyl-1,3-thiazol-5-yl)-5-({[1-(2-fluoro-4-methylphenyl)cyclopropyl]carbonyl}amino)benzoic acid]
3.4	O=C(O)c1cc(NC(=O)C2(c3ccc(C(F)(F)F)cc3F)CC2)ccc1-c1cnc(C2CCC2)s1 [Example 148, 2-(2-Cyclobutyl-1,3-thiazol-5-yl)-5-[({1-[2-fluoro-4-(trifluoromethyl)phenyl]cyclopropyl}carbonyl)amino]benzoic acid]
3.2	O=C(O)c1cc(NC(=O)C2(c3ccc(OC(F)(F)F)cc3F)CC2)ccc1-c1cnc(C2CCC2)s1 [Example 149, 2-(2-Cyclobutyl-1,3-thiazol-5-yl)-5-[({1-[2-fluoro-4-(trifluoromethoxy)phenyl]cyclopropyl}carbonyl)amino]benzoic acid]
500	Cc1ccc(C2(C(=O)Nc3ccc(-c4cnn(C5CC5)c4)c(C(=O)O)c3)CC2)c(F)c1 [Example 150, 2-(1-Cyclopropyl-1H-pyrazol-4-yl)-5-({[1-(2-fluoro-4-methylphenyl)cyclopropyl]carbonyl}amino)benzoic acid]
3.4	O=C(O)c1cc(NC(=O)C2(c3ccc(C(F)(F)F)cc3F)CC2)ccc1-c1cnc(C2CCCC2)s1 [Example 167, 2-(2-Cyclopentyl-1,3-thiazol-5-yl)-5-[({1-[2-fluoro-4-(trifluoromethyl)phenyl]cyclopropyl}carbonyl)amino]benzoic acid]
3.3	O=C(O)c1cc(NC(=O)C2(c3ccc(C(F)(F)F)cc3F)CC2)cc(F)c1-c1cnc(C2CCC2)s1 [Example 168, 2-(2-Cyclobutyl-1,3-thiazol-5-yl)-3-fluoro-5-[({1-[2-fluoro-4-(trifluoromethyl)phenyl]cyclopropyl}carbonyl)amino]benzoic acid]
2100	Cc1cnc(-c2ccc(NC(=O)C3(c4ccc(C(F)(F)F)cc4F)CC3)cc2C(=O)O)cn1 [Example 169, 5-[({1-[2-Fluoro-4-(trifluoromethyl)phenyl]cyclopropyl}carbonyl)amino]-2-(5-methylpyrazin-2-yl)benzoic acid]
390	COc1ccc(C2(C(=O)Nc3ccc(-c4cnn(C5CCC5)c4)c(C(=O)O)c3)CC2)c(F)c1 [Example 171, 2-(1-Cyclobutyl-1H-pyrazol-4-yl)-5-({[1-(2-fluoro-4-methoxyphenyl)cyclopropyl]carbonyl}amino)benzoic acid]
